The results in this text go back to US11091501B2, “Heterocyclic compounds as RSV inhibitors” (Enanta Pharmaceuticals, Inc., priority 2017, dated 2021).

For the assay, the system named is Human RSV-A (“Long” strain). Description: RSV in vitro cytoprotection assay (CPE, ATPlite) in HEp-2 cells. It is filed as cell-based. As to conditions: human respiratory syncytial virus, 96 h; HEp-2 cells, 4-day incubation, ATPlite readout; read-out: Human RSV-A (“Long” strain) EC50. An outline of the steps:
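HEp-2 cells (8,000/well) given 2-fold serial compound dilutions in duplicate, then infected with sucrose-stabilised RSV-A Long stock. After 4 days, cell viability read by ATPlite luminescence, with a parallel uninfected plate for cytotoxicity. EC50 binned A<0.01 μM, B 0.01-0.05 μM, C>0.05 μM.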
A general note: Cellular ATP, detected with luciferase, serves as a proxy for viable cell number.
`Cc1ccc(C(=O)Nc2ccc(C(=O)N3CCc4cc(C(=O)Nc5c(C)cccc5C)sc4-c4ccc(F)cc43)cc2)c(N2CC3(CCOCC3)C2)n1` [Example 116]: the EC50 (in general, the concentration needed to bring the measured effect to its halfway point) is less than 10 nM.
Turning to `Cc1cnc(N2CC3(CCOCC3)C2)c(C(=O)Nc2ccc(C(=O)N3CCc4cc(C(=O)Nc5c(F)cncc5F)sc4-c4ccc(F)cc43)cc2)c1` [Example 117], the EC50 is less than 10 nM.
Consider `Cc1cnc(N2CC3(CCOCC3)C2)c(C(=O)Nc2ccc(C(=O)N3CCc4cc(C(=O)Nc5ncccc5F)sc4-c4ccc(F)cc43)cc2)c1` [Example 118], for which the half-maximal effective concentration (EC50) is less than 10 nM.
Take `Cc1cnc(N2CC3(CCOCC3)C2)c(C(=O)Nc2ccc(C(=O)N3CCc4cc(C(=O)Nc5ncccc5C(F)(F)F)sc4-c4ccc(F)cc43)cc2)c1` [Example 119]: the EC50 was less than 10 nM.
Regarding `Cc1cnc(N2CC3(CCOCC3)C2)c(C(=O)Nc2ccc(C(=O)N3CCc4cc(C(=O)Nc5ncccc5Cl)sc4-c4ccc(F)cc43)cc2)c1` [Example 120], the EC50 is less than 10 nM.
For `Cc1cnc(N2CC3(CCOCC3)C2)c(C(=O)Nc2ccc(C(=O)N3CCc4cc(C(=O)NC5CC(C)(C)OC(C)(C)C5)sc4-c4ccc(F)cc43)cc2)c1` [Example 121], the EC50 was less than 10 nM.
Turning to `Cc1cnc(N2CC3(CCOCC3)C2)c(C(=O)Nc2ccc(C(=O)N3CCc4cc(C(=O)NC5CCS(=O)(=O)CC5)sc4-c4ccc(F)cc43)cc2)c1` [Example 122], the EC50 was more than 50 nM.
To `Cc1cnc(N2CC3(CCOCC3)C2)c(C(=O)Nc2ccc(C(=O)N3CCc4cc(C(=O)NC5CC6CCC5O6)sc4-c4ccc(F)cc43)cc2)c1` (stereo not drawn) [Example 123] belongs less than 10 nM.
Turning to `Cc1cnc(N2CC3(CCOCC3)C2)c(C(=O)Nc2ccc(C(=O)N3CCc4cc(C(=O)N[C@H]5CCOC5)sc4-c4ccc(F)cc43)cc2)c1` [Example 124], the EC50 was less than 10 nM.
Take `Cc1cnc(N2CC3(CCOCC3)C2)c(C(=O)Nc2ccc(C(=O)N3CCc4cc(C(=O)Nc5ncco5)sc4-c4ccc(F)cc43)cc2)c1` [Example 125]: the concentration for a half-maximal effect (EC50) fell in the range of 10 to 50 nM.
Turning to `Cc1cnc(N2CC3(CCOCC3)C2)c(C(=O)Nc2ccc(C(=O)N3CCc4cc(C(=O)Nc5cccnn5)sc4-c4ccc(F)cc43)cc2)c1` [Example 126], the EC50 was less than 10 nM.
For the compound `Cc1cnc(N2CC3(CCOCC3)C2)c(C(=O)Nc2ccc(C(=O)N3CCc4cc(C(=O)Nc5ccnnc5)sc4-c4ccc(F)cc43)cc2)c1` [Example 127], the EC50 lay in the range of 10 to 50 nM.
Turning to `Cc1cnc(N2CC3(CCOCC3)C2)c(C(=O)Nc2ccc(C(=O)N3CCc4cc(C(=O)Nc5ncns5)sc4-c4ccc(F)cc43)cc2)c1` [Example 128], the EC50 lay within 10 to 50 nM.
With `Cc1cnc(N2CC3(CCOCC3)C2)c(C(=O)Nc2ccc(C(=O)N3CCc4cc(C(=O)NC5CCNC5)sc4-c4ccc(F)cc43)cc2)c1` (stereo not drawn) [Example 129], the EC50 was more than 50 nM.
On to `Cc1cnc(N2CC3(CCOCC3)C2)c(C(=O)Nc2ccc(C(=O)N3CCc4cc(C(=O)NC5CCOCC5)sc4-c4ccc(F)cc43)cc2)c1` [Example 130], for which the concentration for a half-maximal effect (EC50) is less than 10 nM.
On to `Cc1cnc(N2CC3(CCOCC3)C2)c(C(=O)Nc2ccc(C(=O)N3CCc4cc(C(=O)Nc5c(Cl)cncc5Cl)sc4-c4ccc(F)cc43)cc2)c1` [Example 131], for which the EC50 was less than 10 nM.
The figure for `Cc1cnc(N2CC3(CCOCC3)C2)c(C(=O)Nc2ccc(C(=O)N3CCc4cc(C(=O)Nc5nccs5)sc4-c4ccc(F)cc43)cc2)c1` [Example 132] is less than 10 nM; for `Cc1cnc(N2CC3(CCOCC3)C2)c(C(=O)Nc2ccc(C(=O)N3CCc4cc(C(=O)Nc5nnc(C)s5)sc4-c4ccc(F)cc43)cc2)c1` [Example 133] it is 10 to 50 nM.
As to `Cc1cnc(N2CC3(CCOCC3)C2)c(C(=O)Nc2ccc(C(=O)N3CCc4cc(C(=O)Nc5ncc(C)o5)sc4-c4ccc(F)cc43)cc2)c1` [Example 134], the EC50 is less than 10 nM.
As for `Cc1cnc(N2CC3(CCOCC3)C2)c(C(=O)Nc2ccc(C(=O)N3CCc4cc(C(=O)Nc5nc(C)co5)sc4-c4ccc(F)cc43)cc2)c1` [Example 135], the EC50 is less than 10 nM.
To `Cc1cc(C(=O)Nc2ccc(C(=O)N3CCc4cc(C(=O)Nc5c(F)cc(F)cc5Cl)sc4-c4ccc(F)cc43)cc2)c(N2CC3(CCOCC3)C2)nn1` [Example 136] belongs 10 to 50 nM; to `O=C(Nc1c(F)cccc1Cl)c1cc2c(s1)-c1ccc(F)cc1N(C(=O)c1ccc(NC(=O)c3cc4c(nc3N3CC5(CCOCC5)C3)CCOC4)cc1)CC2` [Example 137], less than 10 nM.
With `O=C(Nc1ncccc1C(F)(F)F)c1cc2c(s1)-c1ccc(F)cc1N(C(=O)c1ccc(NC(=O)c3cc4c(nc3N3CC5(CCOCC5)C3)CCC4)cc1)CC2` [Example 139], the concentration giving a half-maximal response (EC50) was less than 10 nM.
Consider `O=C(Nc1ncccc1Cl)c1cc2c(s1)-c1ccc(F)cc1N(C(=O)c1ccc(NC(=O)c3cc4c(nc3N3CC5(CCOCC5)C3)CCC4)cc1)CC2` [Example 140], for which the concentration giving a half-maximal response (EC50) is less than 10 nM.
`Cc1cnc(N2CC3(CCOCC3)C2)c(C(=O)Nc2ccc(C(=O)N3CCc4cc(-c5nnco5)sc4-c4ccc(F)cc43)cc2)c1` [Example 141]: the EC50 is less than 10 nM.
The figure for `O=C(Nc1ccc(C(=O)N2CCc3cc(-c4nnco4)sc3-c3ccc(F)cc32)cc1)c1cccnc1N1CC2(CCOCC2)C1` [Example 142] is more than 50 nM; for `Cc1cnc(N2CC3(CCOCC3)C2)c(C(=O)Nc2ccc(C(=O)N3CCc4c(sc(-c5nnco5)c4F)-c4ccc(F)cc43)cc2)c1` [Example 143] it is less than 10 nM.
The figure for `O=C(Nc1c(F)cc(F)cc1Cl)c1cc2c(s1)-c1ccc(F)cc1N(C(=O)c1ccc(NC(=O)c3cc(C(F)F)cnc3N3CC4(CCOCC4)C3)cc1)CC2` [Example 144] is 10 to 50 nM; for `O=C(Nc1c(F)cccc1Cl)c1cc2c(s1)-c1ccc(F)cc1N(C(=O)c1ccc(NC(=O)c3cc(C(F)F)cnc3N3CC4(CCOCC4)C3)cc1)CC2` [Example 145] it is 10 to 50 nM.
As for `O=C(Nc1c(F)cccc1F)c1cc2c(s1)-c1ccc(F)cc1N(C(=O)c1ccc(NC(=O)c3cc(C(F)F)cnc3N3CC4(CCOCC4)C3)cc1)CC2` [Example 146], the EC50 lay in the range of 10 to 50 nM.
In the case of `Cc1ccc(C(=O)Nc2ccc(C(=O)N3CCc4cc(-c5nc6ccccc6[nH]5)sc4-c4ccc(F)cc43)cc2)c(N2CC3(CCOCC3)C2)n1` [Example 147], the EC50 was less than 10 nM.
The figure for `Cc1ccc(C(=O)Nc2ccc(C(=O)N3CCc4cc(-c5nc6cccc(Cl)c6[nH]5)sc4-c4ccc(F)cc43)cc2)c(N2CC3(CCOCC3)C2)n1` [Example 148] is 10 to 50 nM.
In the case of `Cc1ccc(C(=O)Nc2ccc(C(=O)N3CCc4cc(-c5nc6cccc(F)c6[nH]5)sc4-c4ccc(F)cc43)cc2)c(N2CC3(CCOCC3)C2)n1` [Example 149], the EC50 is less than 10 nM.
Take `Cc1cnc(N2CC3(CCOCC3)C2)c(C(=O)Nc2ccc(C(=O)N3CCc4cc(-c5nnc(C)s5)sc4-c4ccc(F)cc43)cc2)c1` [Example 150]: the EC50 is less than 10 nM.
On to `Cc1cnc(N2CC3(CCOCC3)C2)c(C(=O)Nc2ccc(C(=O)N3CCc4cc(-c5ncc(C)s5)sc4-c4ccc(F)cc43)cc2)c1` [Example 151], for which the EC50 is less than 10 nM.
Turning to `Cc1cnc(N2CC3(CCOCC3)C2)c(C(=O)Nc2ccc(C(=O)N3CCc4cc(-c5nc(C)cs5)sc4-c4ccc(F)cc43)cc2)c1` [Example 152], the EC50 fell in the range of 10 to 50 nM.
Consider `Cc1cnc(N2CC3(CCOCC3)C2)c(C(=O)Nc2ccc(C(=O)N3CCc4cc(-c5nc(C)c(C)s5)sc4-c4ccc(F)cc43)cc2)c1` [Example 153], for which the EC50 lay within 10 to 50 nM.
As for `Cc1cnc(N2CC3(CCOCC3)C2)c(C(=O)Nc2ccc(C(=O)N3CCc4cc(-c5nccs5)sc4-c4ccc(F)cc43)cc2)c1` [Example 154], the EC50 is less than 10 nM.
With `Cc1cnc(N2CC3(CCOCC3)C2)c(C(=O)Nc2ccc(C(=O)N3CCc4cc(-c5ncns5)sc4-c4ccc(F)cc43)cc2)c1` [Example 155], the EC50 was less than 10 nM.
As to `Cc1cnc(N2CC3(CCOCC3)C2)c(C(=O)Nc2ccc(C(=O)N3CCc4cc(-c5ncc(C)o5)sc4-c4ccc(F)cc43)cc2)c1` [Example 156], the EC50 is 10 to 50 nM.
The figure for `Cc1cnc(N2CC3(CCOCC3)C2)c(C(=O)Nc2ccc(C(=O)N3CCc4cc(-c5nc(C)co5)sc4-c4ccc(F)cc43)cc2)c1` [Example 157] is 10 to 50 nM; for `Cc1cnc(N2CC3(CCOCC3)C2)c(C(=O)Nc2ccc(C(=O)N3CCc4cc(-c5nc(C)c(C)[nH]5)sc4-c4ccc(F)cc43)cc2)c1` [Example 158] it is less than 10 nM.
`Cc1cnc(N2CC3(CCOCC3)C2)c(C(=O)Nc2ccc(C(=O)N3CCc4cc(-c5ccnn5C)sc4-c4ccc(F)cc43)cc2)c1` [Example 161]: the EC50 is less than 10 nM.
On to `Cc1cnc(N2CC3(CCOCC3)C2)c(C(=O)Nc2ccc(C(=O)N3CCc4cc(-c5ccncc5F)sc4-c4ccc(F)cc43)cc2)c1` [Example 162], for which the EC50 is less than 10 nM.
Regarding `Cc1cnc(N2CC3(CCOCC3)C2)c(C(=O)Nc2ccc(C(=O)N3CCc4cc(-c5ccc(F)cn5)sc4-c4ccc(F)cc43)cc2)c1` [Example 163], the concentration giving a half-maximal response (EC50) was less than 10 nM.
The figure for `Cc1cnc(N2CC3(CCOCC3)C2)c(C(=O)Nc2ccc(C(=O)N3CCc4cc(-c5cccnc5F)sc4-c4ccc(F)cc43)cc2)c1` [Example 164] is less than 10 nM; for `Cc1cnc(N2CC3(CCOCC3)C2)c(C(=O)Nc2ccc(C(=O)N3CCc4cc(-c5ncccc5F)sc4-c4ccc(F)cc43)cc2)c1` [Example 165] it is less than 10 nM.
The figure for `Cc1cnc(N2CC3(CCOCC3)C2)c(C(=O)Nc2ccc(C(=O)N3CCc4cc(-c5ccncc5)sc4-c4ccc(F)cc43)cc2)c1` [Example 166] is less than 10 nM; for `Cc1cnc(N2CC3(CCOCC3)C2)c(C(=O)Nc2ccc(C(=O)N3CCc4cc(-c5cccnc5)sc4-c4ccc(F)cc43)cc2)c1` [Example 167] it is less than 10 nM.
Regarding `Cc1cnc(N2CC3(CCOCC3)C2)c(C(=O)Nc2ccc(C(=O)N3CCc4cc(-c5ccccn5)sc4-c4ccc(F)cc43)cc2)c1` [Example 168], the EC50 was less than 10 nM.
For the compound `Cc1cnc(N2CC3(CCOCC3)C2)c(C(=O)Nc2ccc(C(=O)N3CCc4cc(-c5ncco5)sc4-c4ccc(F)cc43)cc2)c1` [Example 169], the EC50 was less than 10 nM.
